Results from PMC8243409 (Journal of chemical information and modeling, 2021).

Biological target: E. coli dihydrofolate reductase (DHFR) (Escherichia coli, UniProt P0ABQ4)
Test: steady-state kinetics dose response
Type: biochemical

E. coli dihydrofolate reductase (DHFR), sequence (P0ABQ4 whole entry): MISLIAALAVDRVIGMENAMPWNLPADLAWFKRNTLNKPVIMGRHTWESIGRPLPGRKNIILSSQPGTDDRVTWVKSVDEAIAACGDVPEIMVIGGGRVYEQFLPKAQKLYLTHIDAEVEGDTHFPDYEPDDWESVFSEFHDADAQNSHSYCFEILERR

COc1cc2c(Nc3ccc(Br)cc3F)ncnc2cc1OCC1CCN(C)CC1 [NSC760766, Vandetanib]
IC50: ~39 µM
